Test results taken from patent US10676467B2 (Washington University, priority 2017, dated 2020).
“And” between values parts separate entries of the source, which are not always exact repeats. Equal entries are not always repeated.

Tests used:
[1] = target: S1P1 (Rattus norvegicus (Rat), UniProt P48303); assay: MicroPET and tracer kinetic modeling in EAE rat model, lumbar spinal cord; assay type: in vivo
[2] = Ex vivo autoradiography of [18F]22b in rat brain; details: male SD rat, 60 min post-injection
Experimental: Frozen slides were directly exposed to a BAS storage phosphor screen film (BAS-IP-MS-2025) in an imaging cassette (Fuji Photo Film Co., Tokyo, Japan) for 12 h at -80° C. under the dark. The distribution of radioactivity was visualized by a Fuji Bio-Imaging Analyzer FLA-7000 (Fuji Photo Film Co., Tokyo, Japan). […] E. Toman, S. Spiegel, Lysophospholipid receptors in the nervous system, Neurochem. Res. 27 (2002) 619-627; […]. Tanaka, J. Aoki, H. Arai, S. Noji, Expression patterns of the lysophospholipid receptor genes during mouse early development, Dev. Dyn. […] Cytochem. 58 (2010) 847-856).

[3] = Ex vivo biodistribution in female Lewis rats; design: species or system rat
From the text: Organs of blood, heart, lung, muscle, fat, pancreas, spleen, kidney, liver, thymus, brain, and bone were dissected and collected for counting. All the samples were counted with a dilution of the injectate on an automated well counter (Beckman Gamma 8000 well counter). Tissues were weighed and the uptake was reported as background and decay-corrected percent injected dose per gram (% ID/g).
The whole brains were quickly harvested and dissected into regions of cerebellum, brain stem, cortex, striatum, thalamus, and hippocampus, the remainder of the brain was also collected to determine the total brain uptake. Organs of blood, heart, lung, muscle, fat, pancreas, spleen, kidney, liver, thymus, and bone were also dissected and collected for counting. All the samples were counted with a dilution of the injectate on an automated well counter (Beckman Gamma 8000 well counter). Tissues were weighed and the uptake was reported as background and decay-corrected percent injected dose per gram (% ID/g).

[4] = target: S1P1 (Mus musculus (Mouse), UniProt O08530); assay: In vitro autoradiography of [18F]22b in brain slices of LPS-treated mice, SEW2871 blocking; assay type: binding; details: brain sections of LPS-treated mice, ~6 nM tracer, 10 μM SEW2871, 60 min RT
Sequence of S1P1 (Mus musculus (Mouse), UniProt O08530) (O08530 whole entry): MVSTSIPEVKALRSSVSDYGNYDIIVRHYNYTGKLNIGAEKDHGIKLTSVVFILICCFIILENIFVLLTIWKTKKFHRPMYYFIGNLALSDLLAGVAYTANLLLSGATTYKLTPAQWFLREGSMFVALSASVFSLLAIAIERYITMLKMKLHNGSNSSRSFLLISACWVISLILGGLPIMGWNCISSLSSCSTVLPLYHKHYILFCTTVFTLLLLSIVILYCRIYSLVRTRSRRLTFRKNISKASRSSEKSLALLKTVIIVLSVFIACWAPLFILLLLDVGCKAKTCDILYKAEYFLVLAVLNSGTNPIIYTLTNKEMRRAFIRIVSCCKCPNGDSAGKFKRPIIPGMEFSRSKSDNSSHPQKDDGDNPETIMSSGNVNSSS
Experimental: To confirm the binding specificity of [^18F]22b toward S1P1, in vitro autoradiography studies were performed using mouse brain slices that generated from LPS-induced murine neuroinflammation model, a widely used model for neuroinflammation, and the expression of S1P1 was activated in the mouse brain following the LPS injection according to the report (M. Kono, E. G. Conlon, S. Y. Lux, K. Yanagida, T. Hla, R. L. Proia, Bioluminescence imaging of G protein-coupled receptor activation in living mice, Nat. Commun. 8 (2017) 1163). Adult male C57BL/6 mice (20-25 g, Charles River Inc., Frederick, Md.) were used to generate LPS-induced neuroinflammation murine model. The mice (n=2) received an intraperitoneal injection of LPS from E. coli 055:65 (Sigma-Aldrich, St. Louis, Mo., USA) in saline (3 mg/mL) at dose of 15 mg/kg (5 mL/kg) and then euthanized at 24 h post-injection. Mouse brains were collected and cut into 20 μm sequential sections using a Microm cryotome and mounted on glass slides. […] The distribution of radioactivity was visualized by a Fuji Bio-Imaging Analyzer FLA-7000 (Fuji Photo Film, Tokyo, Japan). Photo-stimulated luminescence (PSL) from the brain slices was quantified using Multi Gauge v3.0 software (Fuji Photo Film Co., Tokyo, Japan). Data were background-corrected, and expressed as photo-stimulated luminescence signals per square millimeter (PSL/mm^2).

Sequence of S1P1 (Rattus norvegicus (Rat), UniProt P48303) (P48303 whole entry): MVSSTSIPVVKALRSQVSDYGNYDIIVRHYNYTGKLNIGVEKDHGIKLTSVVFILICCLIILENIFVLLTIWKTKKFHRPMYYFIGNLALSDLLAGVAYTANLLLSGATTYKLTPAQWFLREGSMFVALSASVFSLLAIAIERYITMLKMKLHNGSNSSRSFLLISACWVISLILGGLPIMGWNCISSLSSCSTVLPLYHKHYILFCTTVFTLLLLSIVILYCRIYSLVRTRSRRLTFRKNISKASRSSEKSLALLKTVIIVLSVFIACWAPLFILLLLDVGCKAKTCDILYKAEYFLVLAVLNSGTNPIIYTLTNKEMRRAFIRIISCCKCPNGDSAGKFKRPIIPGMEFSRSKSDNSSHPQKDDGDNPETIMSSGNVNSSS

OCc1cn(Cc2ccc(-c3noc(-c4ccc(OCC[18F])c(C(F)(F)F)c4)n3)cc2)nn1 [[^18F]22b]
Visualization of rat lumbar spinal cord by microPET ([1]; EAE and sham rats): not high enough for clear visualization
Tracer uptake in lumbar spinal cord, EAE ([1]; EAE rats, summed % ID/g value, 10-60 min post injection, n=4): 0.47±0.05 % ID/g
Increase of tracer uptake in EAE rat lumbar spinal cord compared with shams ([1]; microPET, 10-60 min post injection, listed as 18F-TZ43113): ~37% and 36.7%
Tracer uptake in sham rat spinal cord (TAC) ([1]; sham rats, 10-60 min post injection): approximately 0.35 % ID/g
Tracer uptake in lumbar spinal cord, sham ([1]; sham rats, summed % ID/g value, 10-60 min post injection, n=4): 0.34±0.05 % ID/g
Blood-brain barrier crossing, rat brain [2]: able to cross the BBB
Tissue uptake, Blood ([3]; 5 min p.i., n = 4): 0.49 % ID/g and 0.49 ± 0.07 % ID/g
Tissue uptake, Blood ([3]; 30 min p.i., n = 4): 0.42 ± 0.05 % ID/g
Tissue uptake, Blood ([3]; 60 min p.i., n = 4): 0.36 ± 0.02 % ID/g
Tissue uptake, Blood ([3]; 120 min p.i., n = 4): 0.35 ± 0.01 % ID/g
Tissue uptake, Bone ([3]; 5 min p.i., n = 4): 0.55 % ID/g and 0.55 ± 0.05 % ID/g
Tissue uptake, Bone ([3]; 30 min p.i., n = 4): 0.45 ± 0.03 % ID/g
Tissue uptake, Bone ([3]; 60 min p.i., n = 4): 0.45 ± 0.01 % ID/g
Tissue uptake, Bone ([3]; 120 min p.i., n = 4): 0.51 ± 0.05 % ID/g
Tissue uptake, Brain ([3]; 5 min p.i., n = 4): 0.49 % ID/g and 0.49 ± 0.04 % ID/g
Tissue uptake, Brain ([3]; 30 min p.i., n = 4): 0.57 % ID/g and 0.57 ± 0.02 % ID/g
Tissue uptake, Brain ([3]; 60 min p.i., n = 4): 0.71 % ID/g and 0.71 ± 0.03 % ID/g
Tissue uptake, Brain ([3]; 60 min p.i., n = 4, listed as 18F-TZ43113): 0.71 % ID/g
Tissue uptake, Brain ([3]; 120 min p.i., n = 4): 0.61 % ID/g and 0.61 ± 0.05 % ID/g
Tissue uptake, Fat ([3]; 5 min p.i., n = 4): 0.51 % ID/g and 0.51 ± 0.22 % ID/g
Tissue uptake, Fat ([3]; 30 min p.i., n = 4): 0.62 ± 0.10 % ID/g
Tissue uptake, Fat ([3]; 60 min p.i., n = 4): 0.69 ± 0.07 % ID/g
Tissue uptake, Fat ([3]; 120 min p.i., n = 4): 0.57 ± 0.07 % ID/g
Tissue uptake, Heart ([3]; 5 min p.i., n = 4): 1.65 % ID/g and 1.65 ± 0.27 % ID/g
Tissue uptake, Heart ([3]; 30 min p.i., n = 4): 1.19 % ID/g and 1.19 ± 0.06 % ID/g
Tissue uptake, Heart ([3]; 60 min p.i., n = 4): 1.05 ± 0.08 % ID/g
Tissue uptake, Heart ([3]; 120 min p.i., n = 4): 0.94 ± 0.06 % ID/g
Tissue uptake, Kidney ([3]; 5 min p.i., n = 4): 3.43 % ID/g and 3.43 ± 0.31 % ID/g
Tissue uptake, Kidney ([3]; 30 min p.i., n = 4): 2.11 % ID/g and 2.11 ± 0.08 % ID/g
Tissue uptake, Kidney ([3]; 60 min p.i., n = 4): 1.91 ± 0.10 % ID/g
Tissue uptake, Kidney ([3]; 120 min p.i., n = 4): 1.62 ± 0.09 % ID/g
Tissue uptake, Liver ([3]; 5 min p.i., n = 4): 5.69 % ID/g and 5.69 ± 0.60 % ID/g
Tissue uptake, Liver ([3]; 30 min p.i., n = 4): 4.30 % ID/g and 4.30 ± 0.37 % ID/g
Tissue uptake, Liver ([3]; 60 min p.i., n = 4): 4.21 ± 0.21 % ID/g
Tissue uptake, Liver ([3]; 120 min p.i., n = 4): 3.66 ± 0.14 % ID/g
Tissue uptake, Lung ([3]; 5 min p.i., n = 4): 2.79 % ID/g and 2.79 ± 0.57 % ID/g
Tissue uptake, Lung ([3]; 30 min p.i., n = 4): 1.96 % ID/g and 1.96 ± 0.07 % ID/g
Tissue uptake, Lung ([3]; 60 min p.i., n = 4): 1.67 ± 0.09 % ID/g
Tissue uptake, Lung ([3]; 120 min p.i., n = 4): 1.54 ± 0.07 % ID/g
Tissue uptake, Muscle ([3]; 5 min p.i., n = 4): 0.39 % ID/g and 0.39 ± 0.04 % ID/g
Tissue uptake, Muscle ([3]; 30 min p.i., n = 4): 0.59 ± 0.05 % ID/g
Tissue uptake, Muscle ([3]; 60 min p.i., n = 4): 0.51 ± 0.02 % ID/g
Tissue uptake, Muscle ([3]; 120 min p.i., n = 4): 0.47 ± 0.02 % ID/g
Tissue uptake, Pancreas ([3]; 5 min p.i., n = 4): 1.96 % ID/g and 1.96 ± 0.56 % ID/g
Tissue uptake, Pancreas ([3]; 30 min p.i., n = 4): 1.89 ± 0.16 % ID/g
Tissue uptake, Pancreas ([3]; 60 min p.i., n = 4): 1.52 ± 0.25 % ID/g
Tissue uptake, Pancreas ([3]; 120 min p.i., n = 4): 1.45 ± 0.15 % ID/g
Tissue uptake, Spleen ([3]; 5 min p.i., n = 4): 2.22 % ID/g and 2.22 ± 0.23 % ID/g
Tissue uptake, Spleen ([3]; 30 min p.i., n = 4): 1.36 % ID/g and 1.36 ± 0.04 % ID/g
Tissue uptake, Spleen ([3]; 60 min p.i., n = 4): 1.27 ± 0.08 % ID/g
Tissue uptake, Spleen ([3]; 120 min p.i., n = 4): 1.14 ± 0.10 % ID/g
Tissue uptake, Thymus ([3]; 5 min p.i., n = 4): 0.69 % ID/g and 0.69 ± 0.08 % ID/g
Tissue uptake, Thymus ([3]; 30 min p.i., n = 4): 0.83 ± 0.07 % ID/g
Tissue uptake, Thymus ([3]; 60 min p.i., n = 4): 0.82 ± 0.04 % ID/g
Tissue uptake, Thymus ([3]; 120 min p.i., n = 4): 0.78 ± 0.05 % ID/g
Defluorination in vivo (bone uptake 5 to 120 min) ([3]; bone radioactivity unchanged): no defluorination in vivo
Regional brain uptake, brain stem ([3]; brain stem, 5 min p.i.): 0.50 ID %/g
Regional brain uptake, cerebellum ([3]; cerebellum, 5 min p.i.): 0.53 ID %/g
Regional brain uptake, cortex ([3]; cortex, 5 min p.i.): 0.59 ID %/g
Regional brain uptake, hippocampus ([3]; hippocampus, 5 min p.i.): 0.43 ID %/g
Time of maximum brain uptake ([3]; post injection): 60 min
Regional brain uptake, striatum ([3]; striatum, 5 min p.i.): 0.47 ID %/g
Regional brain uptake, thalamus ([3]; thalamus, 5 min p.i.): 0.46 ID %/g
Reduction of tracer uptake by SEW2871 blocking [4]: ~36%
